# How the values were obtained:
# [1] = tested on: SGSR-113 (BRET^2 tagged str-113); assay: BRET^2 response of SGSR-113 to volatile ligands, plate based; format: biochemical, C. elegans
# Excerpt: (§1) SGSRs are chimaeras of C. elegans str-112, str-113, str-114, str-115, str-116 and str-114/113 with the BRET^2 tags GFP^2 and RLuc or RLuc2 inserted in the third intracellular loop and at the C-terminus, respectively. The positions of the third intracellular loops of STR proteins were predicted using “TMAP” an algorithm from “The Biology Workbench” (a web-based tool for prediction of transmembrane segments http.//seqtool.sdsc.edu). These were named SGSR-112, SGSR-113, SGSR-114/113, SGSR-114, SGSR-115 and SGSR-116.
# (§2) Except for SGSR-112, which was commercially synthesised, SGSR expression cassettes were designed and made by introducing multiple restriction sites into the relevant gene-specific PCR primers. PCR products containing those sites were cloned into TOPO PCR vectors (Invitrogen) and then digested with the corresponding restriction enzymes (REs) and ligated into the expression cassettes.
# (§3) The inventors selected a number of specific volatiles (including 1-hexanol, 1 butanol, butane-2,3-dione, 3-hydroxybutanone, 2-pentanone and 2 nonanone) for further testing based on GC-MS analysis of the headspace of OP50 bacteria grown on LB. […] This is the first time that a volatile ligand (or indeed any ligand) has been identified for a BRET-based GPCR sensor, in the absence of prior knowledge of the ligand based on research with the unmodified parental GPCR.
# [2] = target: GFP^2—MBP—RLuc2 (Escherichia coli, UniProt P0AEX9); assay: BRET^2 tagged MBP sugar assay, plate reader; format: binding; conditions: 0.1 mM sugar, 30 minutes at 28° C., 1 μM protein
# Procedure: 1 μM purified protein was used for all the energy transfer assays (final volume of 100 μL). […] Purified protein was incubated with the sugar dissolved in double deionised water or water for 30 minutes at 28° C.
# BRET ratios were calculated as the ratio of maximum acceptor emission intensity to maximum donor emission intensity.
# All data analysis was carried out using GraphPad Prism (version 5 for Windows, Graphpad Software, San Diego, Calif., USA). All data will be reported as means± standard deviation (SD) unless otherwise stated in the text. Two-tailed unpaired t-tests will be performed using Graphpad prism. Statistical significance is defined as p<0.05.
# [3] = target: SGSR-112 (BRET^2 tagged str-112) (Caenorhabditis elegans, UniProt O16913); assay: BRET^2 response of SGSR-112 to volatile ligands, plate based; format: biochemical, C. elegans
# Excerpt: as §1, §2, §3
# [4] = tested on: SGSR-114/113 (BRET^2 tagged str-114/113 chimera); assay: BRET^2 response of SGSR-114/113 to volatile ligands, plate based; format: biochemical, C. elegans
# Excerpt: as §1, §2
# The SGSR 114/113 chimera was constructed by modifying C. elegans SGSR-113 (by replacing the first fragment of str-13, 113-1 using the restriction sites NcoI and BspEI in the cassette with the corresponding fragment of str-114, str-114-1). Str114-1 contains the first 720 str-114 nucleotides of, corresponding to its first 240 amino acids and was amplified by high fidelity PCR using primers incorporating the restriction sites, NcoI at the 5′ end and BspEI at the 3′ end.
# as §3
# Sequence of SGSR-112 (BRET^2 tagged str-112) (O16913 entry or part of it): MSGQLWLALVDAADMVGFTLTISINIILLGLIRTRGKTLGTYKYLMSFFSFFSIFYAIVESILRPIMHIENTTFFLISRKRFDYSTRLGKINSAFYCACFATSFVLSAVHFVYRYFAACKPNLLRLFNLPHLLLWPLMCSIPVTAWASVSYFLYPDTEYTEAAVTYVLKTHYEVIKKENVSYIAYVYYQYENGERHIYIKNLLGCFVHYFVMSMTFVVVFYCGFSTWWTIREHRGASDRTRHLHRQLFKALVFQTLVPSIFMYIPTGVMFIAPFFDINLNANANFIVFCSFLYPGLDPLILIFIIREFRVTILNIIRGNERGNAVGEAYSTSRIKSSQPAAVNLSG
molecule,measurement,setting,value
CCCCCCO [1-hexanol],detectable level,[1]; in vitro,parts per billion (nM) levels
O=C(CO)[C@@H](O)[C@H](O)[C@H](O)CO [fructose],response of BRET biosensor to sugar,[2],did not respond
CCCC(C)=O [2-pentanone],EC50,[3],0.15 nM
same,BRET^2 response to volatile ligand,[3]; 1 μM of odorant,tested positive
same,BRET^2 response to volatile ligand,[4]; 1 μM of odorant,tested positive
same,detectable level,[4]; in vitro,parts per billion levels (nM) levels
same,BRET^2 response to volatile ligand,[1]; 1 μM of odorant,tested positive
maltotriose,amplitude of the change in BRET ratio,[2],17.03%

# — US11385234B2, “Methods and systems for detecting an analyte or classifying a sample” (Commonwealth Scientific and Industrial Research Organisation, priority 2012, dated 2022)
